In PubChem BioAssay (NCI):
Several values for one entry are separate records, joined by “and”; a condition that tells them apart may be missing. Identical values can stand only once.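 1) Cells in 96-well plates. 2) Compound, 48 h, 5 concentrations. 3) Linear interpolation between surrounding doses. 4) Unreached endpoint = highest concentration. GI50 is the concentration that inhibits growth by half. At the TGI there is no net growth.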

Legend:
Assay in all cases: inhibition of tumour cell growth, NCI panel, 48 h
COLO 205 colon = test system: COLO 205 colon
HT29 colon = test system: HT29 colon
NCI-H460 lung = test system: NCI-H460 lung
SF-295 CNS = test system: SF-295 CNS
SK-OV-3 ovarian = test system: SK-OV-3 ovarian
UACC-257 melanoma = test system: UACC-257 melanoma
DU-145 prostate = test system: DU-145 prostate
HOP-92 NSCLC = test system: HOP-92 NSCLC
HS 578T breast = test system: HS 578T breast
MDA-MB-231 breast = test system: MDA-MB-231 breast

SMILES	TGI (COLO 205 colon)	TGI (HT29 colon)	TGI (NCI-H460 lung)	TGI (SF-295 CNS)	TGI (SK-OV-3 ovarian)	TGI (UACC-257 melanoma)	GI50 (COLO 205 colon)	GI50 (DU-145 prostate)	TGI (DU-145 prostate)	GI50 (HOP-92 NSCLC)	TGI (HOP-92 NSCLC)	GI50 (HS 578T breast)	TGI (HS 578T breast)	GI50 (MDA-MB-231 breast)	TGI (MDA-MB-231 breast)	GI50 (NCI-H460 lung)	GI50 (SF-295 CNS)	GI50 (SK-OV-3 ovarian)	GI50 (UACC-257 melanoma)	GI50 (HT29 colon) [µM]
CSCCOC(=O)C(=[N+]=[N-])c1ccc([N+](=O)[O-])cc1	> 100 µM	> 100 µM	> 100 µM	> 100 µM	> 100 µM	> 100 µM														
CC(=O)Oc1cc2c(OC(C)=O)c(-c3c(C)cc4c(C(C)C)c(OC(C)=O)c(OC(C)=O)cc4c3OC(C)=O)c(C)cc2c(C(C)C)c1OC(C)=O	13 µM and 21.3 µM	40.2 µM and > 74.8 µM and 62.7 µM	15.3 µM and 17.5 µM and 32.3 µM	26.7 µM and 12.5 µM and 30.6 µM	> 39.3 µM and 34.1 µM and 55.8 µM	14.4 µM and 10.5 µM and 25.6 µM	9.61 µM and 5.5 µM and 10.1 µM	5.3 µM and 5.17 µM and 9.94 µM	11.1 µM and 10.2 µM and 23.6 µM	1.27 µM and 7.69 µM and 5.33 µM	4.11 µM and 18 µM and 16.7 µM	18.7 µM and 20.1 µM and 8.85 µM	49.8 µM and 55.2 µM and 21.6 µM	0.67 µM and 1.58 µM and 3.63 µM	2.08 µM and 7.6 µM and 12.4 µM	6.16 µM and 6.95 µM and 11.6 µM	8.78 µM and 5.99 µM and 10.7 µM	10.4 µM and 25.3 µM	5.23 µM and 2.58 µM and 8.39 µM	
OC1C2CCC1C1C3C=CC(C3)C21 (centres undefined)	> 100 µM	> 100 µM	> 100 µM	> 100 µM	> 100 µM	> 100 µM					> 100 µM									
O=C(NCc1ccncc1)C12CC3CC(C1)CC(c1ccc(Cl)cc1)(C3)C2	27.1 µM	25.4 µM	28.6 µM	27.3 µM	25.2 µM	25.1 µM	12.7 µM	14.8 µM	28.6 µM	12 µM	25.2 µM	12.9 µM	31.7 µM	12 µM	26.2 µM	14.8 µM	12.7 µM	12.5 µM	12.4 µM	11.9
N#CC1=C(N)NC(=S)NC12Nc1ccccc1N2	> 100 µM		> 100 µM	> 100 µM	> 100 µM	> 100 µM	32.6 µM	65.3 µM	> 100 µM			68.9 µM	> 100 µM	> 100 µM	> 100 µM	28.7 µM	33.1 µM	61 µM	> 100 µM	
CCC[CH2][Sn]1([CH2]CCC)[O]C(=O)c2ccc(C)cc2[O]1	1.61 µM	2.97 µM	4.12 µM	2.52 µM	2.75 µM	1.49 µM	0.465 µM			0.326 µM	1.24 µM					1.77 µM	1.21 µM	1.4 µM	0.316 µM	1.34
COc1cc(OC)c(NC(=O)c2cc3ccccc3cc2O)cc1Cl	14.5 µM	30.1 µM	5.82 µM	9.16 µM			3.91 µM	3.72 µM	38.2 µM	1.55 µM	4.89 µM	2.72 µM	8.95 µM	1.78 µM	4.78 µM	2.43 µM	2.8 µM			4.88
C[n+]1ccc(-c2c3nc(c(-c4cc[n+](C)cc4)c4ccc([n-]4)c(-c4cc[n+](C)cc4)c4nc(c(-c5cc[n+](C)cc5)c5ccc2[n-]5)C=C4)C=C3)cc1.[I-].[Zn+2]	35.8 µM		53.5 µM	> 100 µM	69.5 µM	30.1 µM	18.3 µM									23.5 µM	38 µM	33 µM	9.61 µM	
CC1OC(OC2C(CO)OC(O[C@H]3CC[C@@]4(C)C(=CC[C@H]5[C@@H]6C[C@@H]7O[C@]8(CC[C@@H](C)CN8)[C@@H](C)[C@@H]7[C@@]6(C)CC[C@@H]54)C3)C(O)C2O)C(O)C(O)C1O (some centres undefined)	> 100 µM	> 100 µM	> 100 µM	> 100 µM	> 100 µM	> 100 µM					> 100 µM									
CC(C)(C)OC(=O)NC(CO)c1cccc(OCc2ccccc2)c1 (centres undefined)	> 100 µM	> 100 µM	> 100 µM	> 100 µM	> 100 µM	99.4 µM					> 100 µM									
CC[C@@H]1C[C@H]2CC3c4[nH]c5ccc(O)cc5c4CCN(C2)C31	> 100 µM	> 100 µM	> 100 µM	> 100 µM		> 100 µM					> 100 µM									
O=c1oc(=O)c2oc3ccccc3oc1=2	> 100 µM	> 100 µM	> 100 µM	> 100 µM	> 100 µM	> 100 µM					> 100 µM									
CC/C(=C(/c1ccc(O)cc1)c1ccc(OCCN2CCCCC2)cc1)c1ccc(OC)cc1	3.12 µM	3.67 µM	4.72 µM	3.62 µM	27.3 µM		1.49 µM	4.52 µM	18.1 µM	0.665 µM	2.38 µM	2.09 µM	5.52 µM	1.61 µM	3.84 µM	2.17 µM	1.79 µM	14 µM		1.21
O=C1CC(O)(c2ccccc2)C(c2ccccc2)=C1c1ccccc1 (centres undefined)	35.7 µM	> 100 µM	> 100 µM	> 100 µM	> 100 µM	> 100 µM					61.3 µM									
CN(C)CCOC(c1ccccc1)c1ccccc1	28.3 µM and > 100 µM	45.5 µM and > 100 µM	46 µM and > 100 µM		54.8 µM	19.8 µM and > 100 µM	14 µM	40.3 µM	55.8 µM and > 100 µM		85.7 µM	32.2 µM	51.3 µM and > 100 µM	15.6 µM	45.2 µM and > 100 µM	26.2 µM		40.6 µM	14.2 µM	23.8
COC(=O)c1ccc(Cl)cc1NC(=O)C1CCCCC1	> 100 µM	> 100 µM		> 100 µM		> 100 µM					> 100 µM									
Cc1ccc(-c2nc(N3CCCNCC3)c3oc(-c4ccccc4)nc3n2)cc1	3.5 µM	3.15 µM	3.5 µM	3.43 µM	3.31 µM	3.48 µM	1.89 µM	1.89 µM	3.4 µM			1.94 µM	4.22 µM	1.77 µM	3.27 µM	1.85 µM	1.93 µM	1.89 µM	1.96 µM	1.69
O=c1oc2ccc(-n3c(=O)c4ccccc4c4ccccc4c3=O)cc2c2ccccc12	> 100 µM	> 100 µM	> 100 µM	> 100 µM	> 100 µM	> 100 µM					84.5 µM		81 µM		> 100 µM					
